# Measurements taken from ChEMBL document CHEMBL1154585, “Lorneamides A and B: two new aromatic amides from a southern Australian marine actinomycete” (2000).
# System: Bacillus subtilis
# Test: Antibacterial activity against Bacillus subtilis
# Assay type: functional
structure (smiles),measurement,value
CCCC(O)/C=C/c1cc(C)ccc1/C=C/CC(N)=O (stereo unspecified) [LORNEAMIDE A],LD99,50 µg/mL
